{"source": "patent US20100273189A1", "about": "“NON SEPARATION ASSAYS WITH SELECTIVE SIGNAL INHIBITORS” (BECKMAN COULTER, INC., priority 2009, published 2010)", "type_in_all_cases": "biochemical", "key": {"PSA": {"test_system": "PSA", "test": "Effect of trigger pH: PSA on LodeStar particles with ascorbate", "procedure": "B. In order to determine the effect of trigger solution pH on a variety of test assay systems, a series of experiments were conducted varying trigger pH. […] In the tables, two pH values are listed for each data set. The first is the pH of the buffer sample added to the reaction mixture. The second is the resulting pH of the final reaction mix."}, "myoglobin": {"test_system": "myoglobin", "test": "Myoglobin assay, AK-Ab1 particle + HRP-Ab2 conjugate", "settings": "ascorbic acid employed", "procedure": "This example describes a method of detecting myoglobin using a AK-Abl particle prepared as set forth in Example 3 and a HRP-Ab2 conjugate prepared as set forth in Example 4 where Ab2 represents an antibody to myoglobin. This method employed ascorbic acid to decrease background signal.\nHRP-Ab2 conjugate suspensions were prepared at 1.0 μg/mL and contained either 0 or 1 mM ascorbic acid. Samples consisted of human serum samples with the indicated mounts of myoglobin added or no myoglobin as a control. The test procedure consisted of adding 20 μL of 1.0 μg/mL HRP-Ab2 conjugate and 30 μl of MES buffer containing 1 mg/mL BSA and 1 mg/mL MIgG, pH 5.9 to the reaction vessel. Next, 25 μL of patient serum sample was added, followed by 25 μL of 5.0 mg/mL AK-Abl conjugate suspension thereby obtaining 100 μL of total volume in the reaction vessel. After 15.2 minutes, […] of trigger solution A was added to the reaction vessel and the light intensity was recorded on the modified DxI instrument. Chemiluminescence intensity is expressed in Relative Light Units (RLU)."}, "biotin-HRP": {"test_system": "biotin-HRP", "test": "Effect of ascorbic acid incubation time on chemiluminescence, Dynal M-280 biotin-HRP system", "settings": "incubation time 80-330 seconds; ascorbic acid 0-200 μM; in words", "procedure": "The effect of the length of time that a sample is exposed to ascorbic acid on the observed reduction of chemiluminescence intensity was investigated in a series of experiments employing the Dynal M-280 PMP particles and biotin-HRP system described in Example 11. Briefly, biotin-labeled PMPs, and various biotin-HRP/HRP solutions were allowed to bind and ascorbic acid solutions added. After a delay period ranging from 80-330 seconds, trigger solution A was injected and the chemiluminescence intensity integrated. The biotin-HRP/HRP solutions contained a total of 200 ng/mL HRP in the proportion 1:200, 8:192, and 32:168 biotin-HRP:HRP. Trials were run using various concentrations of ascorbic acid as the Sample in water at 0, 25, 50 100 and 200 μM."}, "cTnI": {"test_system": "cTnI", "test": "cTnI assay with various magnetic particles, without and with ascorbic acid 150 μM", "from_the_text": "The effectiveness of ascorbic acid in improving assay performance in microparticle formats was investigated using a cTnI analyte with various magnetic particles. Magnetic particles evaluated included LodeStars PMP, latex PMP and carboxylate-modified polystyrene latex PMP. “Lot B Magnetic Particle” are 6.2 μm diameter carboxyl PMPs (Bangs Laboratories, Fishers, Ind.). “Lot D Magnetic Particle” are 8.1 μm diameter carboxyl PMPs (Bangs Laboratories). “Lot F Latex Particle” are 3.1 μm diameter carboxyl PMPs (Seradyn Products, Thermo-Fisher, Indianapolis, Ind.). “CML PMP” are […] diameter carboxylate modified latex particles (Invitrogen, Carlsbad, Calif.). LodeStars PMP were labeled with AK4 and biotin by EDC coupling and overcoated with streptavidin following the general protocol of Example 3. Lots B, D, and F and CML PMP were labeled with AK-BSA-biotin according to Example 1. The particles were then coated with streptavidin and bound to biotin-labeled anti-cTnI.\nIn an initial experiment, the cTnI assay was conducted without ascorbic acid in the reaction mix.\nIn this case, LodeStars particles retain much more specific signal than the other particle types, even while the background decreases almost […]."}, "[1]": {"settings": "Control (7.7), S1, PSA 400 pg/ml"}, "[2]": {"settings": "Control (7.7), S2, PSA 1400 pg/ml"}, "[3]": {"settings": "Control (7.7), S3, PSA 7000 pg/ml"}, "[4]": {"settings": "Control (7.7), S4, PSA 51000 pg/ml"}, "[5]": {"settings": "Control (7.7), S5, PSA 101600 pg/ml"}, "[6]": {"settings": "pH 6.0 (6.2), S1, PSA 400 pg/ml"}, "[7]": {"settings": "pH 6.0 (6.2), S2, PSA 1400 pg/ml"}, "[8]": {"settings": "pH 6.0 (6.2), S3, PSA 7000 pg/ml"}, "[9]": {"settings": "pH 6.0 (6.2), S4, PSA 51000 pg/ml"}, "[10]": {"settings": "pH 6.0 (6.2), S5, PSA 101600 pg/ml"}, "[11]": {"settings": "pH 7.0 (7.4), S1, PSA 400 pg/ml"}, "[12]": {"settings": "pH 7.0 (7.4), S2, PSA 1400 pg/ml"}, "[13]": {"settings": "pH 7.0 (7.4), S3, PSA 7000 pg/ml"}, "[14]": {"settings": "pH 7.0 (7.4), S4, PSA 51000 pg/ml"}, "[15]": {"settings": "pH 7.0 (7.4), S5, PSA 101600 pg/ml"}, "[16]": {"settings": "pH 8.0 (7.9), S1, PSA 400 pg/ml"}, "[17]": {"settings": "pH 8.0 (7.9), S2, PSA 1400 pg/ml"}, "[18]": {"settings": "pH 8.0 (7.9), S3, PSA 7000 pg/ml"}, "[19]": {"settings": "pH 8.0 (7.9), S4, PSA 51000 pg/ml"}, "[20]": {"settings": "pH 8.0 (7.9), S5, PSA 101600 pg/ml"}, "[21]": {"settings": "pH 9.0 (8.4), S1, PSA 400 pg/ml"}, "[22]": {"settings": "pH 9.0 (8.4), S2, PSA 1400 pg/ml"}, "[23]": {"settings": "pH 9.0 (8.4), S3, PSA 7000 pg/ml"}, "[24]": {"settings": "pH 9.0 (8.4), S4, PSA 51000 pg/ml"}, "[25]": {"settings": "pH 9.0 (8.4), S5, PSA 101600 pg/ml"}}, "data": [{"compound": "O=C1O[C@H]([C@@H](O)CO)C(O)=C1O", "note": "[Ascorbic Acid, Ascorbic acid]", "values": [{"measurement": "Mean RLU", "setting": "PSA; Control (7.7), S0, PSA 0 pg/ml", "result": "8,192 RLU"}, {"measurement": "Mean RLU", "setting": "PSA; [1]", "result": "91,301 RLU"}, {"measurement": "S/S0", "setting": "PSA; [1]", "result": 11.1}, {"measurement": "Mean RLU", "setting": "PSA; [2]", "result": "403,035 RLU"}, {"measurement": "S/S0", "setting": "PSA; [2]", "result": 49.2}, {"measurement": "Mean RLU", "setting": "PSA; [3]", "result": "2,803,433 RLU"}, {"measurement": "S/S0", "setting": "PSA; [3]", "result": 342.2}, {"measurement": "Mean RLU", "setting": "PSA; [4]", "result": "10,490,375 RLU"}, {"measurement": "S/S0", "setting": "PSA; [4]", "result": 1280.6}, {"measurement": "Mean RLU", "setting": "PSA; [5]", "result": "10,598,780 RLU"}, {"measurement": "S/S0", "setting": "PSA; [5]", "result": 1293.8}, {"measurement": "Mean RLU", "setting": "PSA; pH 6.0 (6.2), S0, PSA 0 pg/ml", "result": "3,301 RLU"}, {"measurement": "Mean RLU", "setting": "PSA; [6]", "result": "34,485 RLU"}, {"measurement": "S/S0", "setting": "PSA; [6]", "result": 10.4}, {"measurement": "Mean RLU", "setting": "PSA; [7]", "result": "114,219 RLU"}, {"measurement": "S/S0", "setting": "PSA; [7]", "result": 34.6}, {"measurement": "Mean RLU", "setting": "PSA; [8]", "result": "786,859 RLU"}, {"measurement": "S/S0", "setting": "PSA; [8]", "result": 238.3}, {"measurement": "Mean RLU", "setting": "PSA; [9]", "result": "3,198,045 RLU"}, {"measurement": "S/S0", "setting": "PSA; [9]", "result": 968.7}, {"measurement": "Mean RLU", "setting": "PSA; [10]", "result": "3,728,345 RLU"}, {"measurement": "S/S0", "setting": "PSA; [10]", "result": 1129.3}, {"measurement": "Mean RLU", "setting": "PSA; pH 7.0 (7.4), S0, PSA 0 pg/ml", "result": "7,704 RLU"}, {"measurement": "Mean RLU", "setting": "PSA; [11]", "result": "87,221 RLU"}, {"measurement": "S/S0", "setting": "PSA; [11]", "result": 11.3}, {"measurement": "Mean RLU", "setting": "PSA; [12]", "result": "333,253 RLU"}, {"measurement": "S/S0", "setting": "PSA; [12]", "result": 43.3}, {"measurement": "Mean RLU", "setting": "PSA; [13]", "result": "2,640,633 RLU"}, {"measurement": "S/S0", "setting": "PSA; [13]", "result": 342.8}, {"measurement": "Mean RLU", "setting": "PSA; [14]", "result": "9,524,603 RLU"}, {"measurement": "S/S0", "setting": "PSA; [14]", "result": 1236.3}, {"measurement": "Mean RLU", "setting": "PSA; [15]", "result": "10,001,948 RLU"}, {"measurement": "S/S0", "setting": "PSA; [15]", "result": 1298.3}, {"measurement": "Mean RLU", "setting": "PSA; pH 8.0 (7.9), S0, PSA 0 pg/ml", "result": "9,345 RLU"}, {"measurement": "Mean RLU", "setting": "PSA; [16]", "result": "96,427 RLU"}, {"measurement": "S/S0", "setting": "PSA; [16]", "result": 10.3}, {"measurement": "Mean RLU", "setting": "PSA; [17]", "result": "429,327 RLU"}, {"measurement": "S/S0", "setting": "PSA; [17]", "result": 45.9}, {"measurement": "Mean RLU", "setting": "PSA; [18]", "result": "3,433,037 RLU"}, {"measurement": "S/S0", "setting": "PSA; [18]", "result": 367.4}, {"measurement": "Mean RLU", "setting": "PSA; [19]", "result": "11,497,652 RLU"}, {"measurement": "S/S0", "setting": "PSA; [19]", "result": 1230.3}, {"measurement": "Mean RLU", "setting": "PSA; [20]", "result": "11,461,215 RLU"}, {"measurement": "S/S0", "setting": "PSA; [20]", "result": 1226.4}, {"measurement": "Mean RLU", "setting": "PSA; pH 9.0 (8.4), S0, PSA 0 pg/ml", "result": "5,821 RLU"}, {"measurement": "Mean RLU", "setting": "PSA; [21]", "result": "73,801 RLU"}, {"measurement": "S/S0", "setting": "PSA; [21]", "result": 12.7}, {"measurement": "Mean RLU", "setting": "PSA; [22]", "result": "315,528 RLU"}, {"measurement": "S/S0", "setting": "PSA; [22]", "result": 54.2}, {"measurement": "Mean RLU", "setting": "PSA; [23]", "result": "2,592,673 RLU"}, {"measurement": "S/S0", "setting": "PSA; [23]", "result": 445.4}, {"measurement": "Mean RLU", "setting": "PSA; [24]", "result": "11,443,659 RLU"}, {"measurement": "S/S0", "setting": "PSA; [24]", "result": 1965.8}, {"measurement": "Mean RLU", "setting": "PSA; [25]", "result": "11,479,280 RLU"}, {"measurement": "S/S0", "setting": "PSA; [25]", "result": 1971.9}, {"measurement": "RLU", "setting": "myoglobin; S0, 11.4 ng/mL", "result": "1,183 RLU"}, {"measurement": "RLU", "setting": "myoglobin; S1, 56.3 ng/mL", "result": "5,557 RLU"}, {"measurement": "S/S0", "setting": "myoglobin; S1, 56.3 ng/mL", "result": 5}, {"measurement": "RLU", "setting": "myoglobin; S2, 221 ng/mL", "result": "31,947 RLU"}, {"measurement": "S/S0", "setting": "myoglobin; S2, 221 ng/mL", "result": 27}, {"measurement": "RLU", "setting": "myoglobin; S3, 864 ng/mL", "result": "190,076 RLU"}, {"measurement": "S/S0", "setting": "myoglobin; S3, 864 ng/mL", "result": 161}, {"measurement": "RLU", "setting": "myoglobin; S4, 2016 ng/mL", "result": "1,315,465 RLU"}, {"measurement": "S/S0", "setting": "myoglobin; S4, 2016 ng/mL", "result": "1,048"}, {"measurement": "RLU", "setting": "myoglobin; S5, 3136 ng/mL", "result": "4,667,341 RLU"}, {"measurement": "S/S0", "setting": "myoglobin; S5, 3136 ng/mL", "result": "3,945"}, {"measurement": "effect of ascorbic acid incubation time on observed chemiluminescence", "setting": "biotin-HRP", "result": "does not appear to cause a significant effect"}, {"measurement": "background decrease", "setting": "cTnI; ascorbic acid 150 μM prior to addition of trigger, LodeStars particles", "result": "~300", "unit": "%"}, {"measurement": "assay sensitivity", "setting": "cTnI; ascorbic acid in the assay reaction mixture, in words", "result": "significantly improves the assay sensitivity"}]}]}
